Assay results published in the supplement of paper PMC10307832.

Assays:
Assay in all cases: relative viability (nuclei count vs DMSO), 5 days (fraction); higher = more cells survive
[1] = compound: C1CNCCC1C2=CC(=NN2)C3=CC=NC=C3 + Cc1cc(Nc2cc(N3CCN(C)CC3)nc(Sc3ccc(NC(=O)C4CC4)cc3)n2)n[nH]1 [Tozasertib] (partner 0.1 µM)
Outline: (§1)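 Lung cancer cell lines, seeded in 1536-well plates, were treated the following day by pin tool with a single drug or with five library-drug doses (not always all listed) in √10 steps on top of a fixed anchor-drug dose. Cells were fixed and nuclei stained in one step after 5 days, and nuclei were counted. Relative viability is the nuclei count for treated wells divided by that for vehicle wells, reported as medians of duplicate plates.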

Tanzisertib + Bortezomib = compound: O[C@H]1CC[C@H](Nc2ncc3nc(Nc4c(F)cc(F)cc4F)n([C@H]4CCOC4)c3n2)CC1 [Tanzisertib] + CC(C)C[C@H](NC(=O)[C@H](Cc1ccccc1)NC(=O)c1cnccn1)B(O)O [Bortezomib] (partner 0.002 µM)
Outline: as §1

Tanzisertib + Pictilisib = compound: O[C@H]1CC[C@H](Nc2ncc3nc(Nc4c(F)cc(F)cc4F)n([C@H]4CCOC4)c3n2)CC1 [Tanzisertib] + CS(=O)(=O)N1CCN(Cc2cc3nc(-c4cccc5[nH]ncc45)nc(N4CCOCC4)c3s2)CC1 [Pictilisib] (partner 1 µM)
Outline: as §1

Tanzisertib + Olaparib = compound: O[C@H]1CC[C@H](Nc2ncc3nc(Nc4c(F)cc(F)cc4F)n([C@H]4CCOC4)c3n2)CC1 [Tanzisertib] + O=C(c1cc(Cc2n[nH]c(=O)c3ccccc23)ccc1F)N1CCN(C(=O)C2CC2)CC1 [Olaparib] (partner 8 µM)
Outline: as §1

Cell Line	relative viability ([1]; first compound 0.08 µM)	relative viability ([1]; first compound 0.8 µM)	relative viability ([1]; first compound 2.53 µM)	relative viability ([1]; first compound 8 µM)	relative viability (Tanzisertib + Bortezomib; first compound 0.08 µM)	relative viability (Tanzisertib + Bortezomib; first compound 0.253 µM)	relative viability (Tanzisertib + Bortezomib; first compound 0.8 µM)	relative viability (Tanzisertib + Bortezomib; first compound 2.53 µM)	relative viability (Tanzisertib + Bortezomib; first compound 8 µM)	relative viability (Tanzisertib + Pictilisib; first compound 0.08 µM)	relative viability (Tanzisertib + Pictilisib; first compound 0.253 µM)	relative viability (Tanzisertib + Pictilisib; first compound 0.8 µM)	relative viability (Tanzisertib + Pictilisib; first compound 2.53 µM)	relative viability (Tanzisertib + Pictilisib; first compound 8 µM)	relative viability (Tanzisertib + Olaparib; first compound 0.08 µM)	relative viability (Tanzisertib + Olaparib; first compound 0.253 µM)	relative viability (Tanzisertib + Olaparib; first compound 0.8 µM)	relative viability (Tanzisertib + Olaparib; first compound 2.53 µM)	relative viability (Tanzisertib + Olaparib; first compound 8 µM)
NCI-H1915	0.475	0.435	0.451	0.438	0.992	1.07	1	0.978	0.989	1.19	0.958	0.946	0.95	0.732	0.29	0.271	0.244	0.245	0.25
BEN	0.575	0.514	0.45	0.513	0.944	0.954	0.781	0.85	0.729	0.577	0.555	0.612	0.561	0.48	1.05	0.968	1.05	1.12	0.997
NCI-H3122	0.366	0.416	0.408	0.417	1.06	1.02	1.04	1.03	1.01	0.655	0.591	0.587	0.572	0.743	0.708	0.587	0.634	0.583	0.62
HOP-62	0.416	0.407	0.386	0.383	0.803	0.974	1.01	0.726	0.704	0.851	0.874	0.856	0.871	0.341	0.268	0.426	0.587	0.643	0.556
HCC-366	0.214	0.137	0.182	0.123	1.08	1.03	1.1	0.995	1.01	0.138	0.15	0.134	0.128	0.114		0.319	0.36	0.353	0.308
NCI-H2347	0.766	0.599	0.557	0.571	0.737	0.837	1.27	1.29	0.628	0.781	0.444	0.501	0.478	0.715	0.628	0.626	0.593	0.677	0.766
LXF-289	0.219	0.196	0.178	0.207	1.1	1.03	1.03	0.977	1.04	0.887	0.745	0.459	0.735	0.804	1.13	1.02	1.12	1.02	1.13
LU99A	0.307	0.267	0.278	0.304	1.29	1.07	1.08	1.19	1.31	0.322	0.303	0.319	0.358	0.321	0.268	0.253	0.246	0.276	0.255
